Data reported in the OPERA property sets (Mansouri et al. 2018).

Row | logP | Structure (SMILES)
1 | 1.65 | COc1cnc(N(C)C)cn1
2 | 1.58 | COc1cncc(OC)n1
3 | 0.82 | COc1cncc(NC(C)=O)n1
4 | 0.61 | CCOC(=O)c1cnc(C)cn1
5 | 0.73 | COc1cncc(N)n1
6 | 1.07 | CCc1nccnc1C
7 | 0.13 | COc1cncc(C(N)=O)n1
8 | 2.1 | CCCCc1nccnc1C
9 | 1.52 | COc1cnc(Cl)cn1
10 | 1.57 | Cc1cncc(N(C)C)n1
11 | 0.51 | CCOC(=O)c1cncc(C)n1
12 | 1.99 | CCOc1cnc(Cl)cn1
13 | 1.95 | CCc1ncc(C)nc1CC
14 | 1.29 | COc1cncc(C)n1
15 | 0.1 | COC(=O)c1cncc(C)n1
16 | 0.95 | COc1cncc(C#N)n1

Row | logP | Structure (SMILES)
17 | 1.2 | CCOC(=O)c1cncc(OC)n1
18 | 1.51 | CCc1nccnc1CC
19 | 0.69 | COC(=O)c1cncc(OC)n1
20 | 1.57 | CCCc1nccnc1C
21 | 1.98 | CCOc1cncc(OC)n1
22 | 0.44 | Cc1cncc(C#N)n1
23 | 0.65 | CCOC(=O)c1nccnc1C(=O)OCC
24 | 1.24 | CCOC(=O)c1cncc(N(C)C)n1
25 | 0.63 | COc1cnc(N)cn1
26 | 0.61 | CCOc1cncc(C(N)=O)n1
27 | 0.54 | Cc1cncc(C)n1
28 | 0.35 | Cc1cncc(N)n1
29 | 1.14 | COc1cnc(OC)cn1
30 | 2.55 | CCOc1cncc(OCC)n1
31 | 1.99 | COc1cncc(N(C)C)n1

Second part, the molecule before the results:

Row | Structure (SMILES) | logP
32 | COC(=O)c1cncc(N(C)C)n1 | 0.9
33 | Cc1nc(C#N)c(C#N)nc1Cl | 1.29
34 | N#Cc1nccnc1C#N | 0.38
35 | Cc1cnc(C(N)=O)cn1 | -0.25
36 | Cc1cnc(C)c(Cl)n1 | 1.5
37 | CN(C)c1cncc(C(N)=O)n1 | 0.38
38 | CSc1nccnc1C | 1.81
39 | Cc1cnc(Cl)cn1 | 1.08
40 | CN(C)c1cnc(Cl)cn1 | 1.7
41 | CN(C)c1cncc(C#N)n1 | 1.12
42 | Clc1cnc(Cl)cn1 | 1.58
43 | Nc1cncc(N)n1 | -0.45
44 | Cc1nccnc1C | 0.54
45 | CC(=O)Nc1cnc(Cl)cn1 | 0.56
46 | Cc1cncc(C(N)=O)n1 | -0.13
47 | Cc1nc(C)c(C)nc1C | 1.28
48 | CCCCc1nc(C#N)c(C#N)nc1Cl | 2.89
49 | COc1nccnc1C | 1.24
50 | CCc1nc(C#N)c(C#N)nc1Cl | 1.79
51 | COC(=O)c1cnc(C)cn1 | 0.17
52 | Cc1nccnc1OC(C)C | 2.24
53 | Cc1cnc(C)c(C)n1 | 0.95
54 | Cc1cnc(C#N)cn1 | 0.26
55 | COC(=O)c1nccnc1C(=O)OC | -0.02
56 | COC(=O)c1ccc(Br)o1 | 1.84
57 | COc1ccnc(C#N)n1 | 0.86
58 | CC(=O)Nc1cncc(C)n1 | 0.38
